Measured values: the NIST ThermoML archive (doi:10.1021/acs.jced.7b00788)

How the values were obtained:
[1] = 100 kPa, Liquid; for viscosity: Concentric cylinders viscometry; for mass density: Vibrating tube method
[2] = xn = mol fraction of the nth substance listed; details: 100 kPa, Liquid, x1 = 1; for viscosity: Concentric cylinders viscometry; for mass density: Vibrating tube method

CCOP(=O)([O-])OCC.CCn1cc[n+](C)c1 [1-ethyl-3-methylimidazolium diethyl phosphate]
[1]
Details | mass density [kg/m3] | viscosity [mPa·s]
293.15 K | 1151.2 | 540
303.15 K | 1144.2 | 274
313.15 K | 1137.4 | 154
323.15 K | 1130.7 | 94
333.15 K | 1124.1 | 61.2
343.15 K | 1117.5 | 42.1
353.15 K | 1111 | 30.2
363.15 K | 1104.5 | 22.5
373.15 K | 1098.2 | 17.3

C[S+](C)[O-] [dimethyl sulfoxide]
[1]
Details | mass density [kg/m3] | viscosity [mPa·s]
293.15 K | 1101.2 | 2.31
303.15 K | 1091.2 | 1.89
313.15 K | 1081.1 | 1.57
323.15 K | 1071.1 | 1.33
333.15 K | 1061.2 | 1.15
343.15 K | 1051.3 | 1.01
353.15 K | 1041.1 | 0.893
363.15 K | 1031.3 | 0.799
373.15 K | 1021.4 | 0.721

O [water]
[1]
Details | mass density [kg/m3] | viscosity [mPa·s]
293.15 K | 1000.1 | 1
303.15 K | 998 | 0.805
313.15 K | 994.3 | 0.651
323.15 K | – | 0.544
333.15 K | 985.2 | 0.472
343.15 K | 979.6 | 0.417
353.15 K | 973.3 | 0.342

O [water] + CCOP(=O)([O-])OCC.CCn1cc[n+](C)c1
[2]
Details | mass density [kg/m3] | viscosity [mPa·s]
293.15 K | 1000.1 | 1
303.15 K | 998 | 0.805
313.15 K | 994.3 | 0.651
323.15 K | – | 0.544
333.15 K | 985.2 | 0.472
343.15 K | 979.6 | 0.417
353.15 K | 973.3 | 0.342
